Reference: patent US20240191244A1 (priority 2020, published 2024)

Tested on: wild-type HN08 strain
Type: cell-based, C. siamense

## N#Cc1c[nH]cc1-c1cccc2c1OC(F)(F)O2 [fludioxonil]
  strain growth rate: gradually decreases
